Where two headings read alike, the source gives them in different places.
Key:
[1] = system: THP-1 cells co-cultured with HT-29; test: Immune cell proliferation in co-cultures of HT-29/THP-1; assay type: cell-based, human; conditions: 100 μM
Description: We also determined the effect of the selected compounds on the human monocyte cells THP-1 in the described co-cultures (see Table 6).
To determine the action of the compounds on cancer cell proliferation in co-culture with immune cells, 10^5 or 2 × 10^5 of the HT-29 cells line were seeded in each well of 12-well plates and left at 37 °C for 24 h. Then, the cancer cells were treated with IFN-γ (10 ng/mL; human, Invitrogen®, Waltham, MA, USA) containing 5 × 10^5 or 10^5, respectively, of THP-1 cells per well and the corresponding compound at 100 μM or DMSO for the positive control. After 24 h/48 h of incubation, the supernatants were collected to establish the alive THP-1 cells using FSC and SCC flow cytometry. In addition, cancer cells were collected with trypsin, fixed with 4% in PBS paraformaldehyde and counted using flow cytometry.

[2] = system: A-549 (pulmonary adenocarcinoma); test: MTT cell proliferation assay, A-549; assay type: cell-based; conditions: Homo sapiens, read-out: IC50 A-549
Description: (§1) After the supernatant was discarded, we solved the formazan crystal in 100 µL of DMSO. The absorbance was then registered at 550 nm using a plate lector. For all concentrations of any compound, cell viability was expressed as the percentage of the ratio between the mean absorbance of the treated cells and the mean absorbance of the untreated cells. Three to five experiments were performed to establish the IC50 values (i.e., concentration half inhibiting cell proliferation, we used GraphPad Prism 7 software).

[3] = system: HEK-293 (human embryonic kidney cells); test: MTT cell proliferation assay, HEK-293; assay type: cell-based; conditions: HEK293, 48 h treatment
Description: The action on cell proliferation caused by our developed compounds was studied using an MTT assay using the human tumor cell lines of HT-29 (colon adenocarcinoma) and A-549 (pulmonary adenocarcinoma), as well as toward the non-tumor cell line HEK-293 (human embryonic kidney cells), Jurkat T-cells and human microvessel endothelial cells (HMEC-1).
In general, 5 × 10^3 (HT-29, A549, HMEC-1, Jurkat and HEK-293) cells per well were seeded in 96-well plates with 1:1 dilutions of the compounds in a volume of 100 μL of the cell media. The 3-(4,5-dimethylthiazol-2-yl)-2,5-diphenyltetrazolium bromide (MTT; Sigma Chemical Co.) dye exclusion assay was performed, and after 48 h (37 °C, 5% CO2 in a humid atmosphere), 10 μL of MTT (5 mg/mL in phosphate-buffered saline, PBS) was added to each well and incubated for 3 h at 37 °C. After the supernatant was discarded, we solved the formazan crystal in 100 µL of DMSO. The absorbance was then registered at 550 nm using a plate lector. For all concentrations of any compound, cell viability was expressed as the percentage of the ratio between the mean absorbance of the treated cells and the mean absorbance of the untreated cells. Three to five experiments were performed to establish the IC50 values (i.e., concentration half inhibiting cell proliferation, we used GraphPad Prism 7 software).

[4] = system: HT-29 (colon adenocarcinoma); test: MTT cell proliferation assay, HT-29; assay type: cell-based; conditions: Homo sapiens, read-out: IC50 HT-29
Description: as §1

CD80 = CD80 detection on membrane of co-cultured THP-1; assay type: cell-based, human; conditions: 1:5 HT-29/THP-1; 24 h; relative to non-treated co-cultured THP-1
Excerpt: Reducing the expression of CD11b has become a promising target for immune modulation in anticancer therapies. For that reason, we decided to study the effect of our compounds on CD11b in THP-1 cells co-cultured with HT-29. We also determined the relative amount of CD80, a common surface marker for monocytes.
The results are related to non-treated THP-1 cells when they were co-cultured with HT-29.
The action of the compounds on CDs in co-cultured THP-1 immune cells with cancer cell line HT-29 was tested by treating them with the compounds for 24 h/48 h (see Section 4.2.5). Surface CD11b and CD80 was determined by collecting THP-1 with trypsin, fixing with formaldehyde and staining with FITC Mouse monoclonal Anti-Human CD80 (Sigma-Aldrich SAB4700142) and Alexa Fluor® 647 Rabbit monoclonal Anti-CD11b (Merck #MABF366, Rahway, NJ, USA).

melting point	IC50 ([2]; A549, MTT, 48 h treatment)	IC50 ([4]; HT-29, MTT, 48 h treatment)	SMILES	THP-1 cell proliferation in co-culture ([1]; 1:5 HT-29/THP-1, 24 h)	THP-1 cell proliferation in co-culture ([1]; 1:5 HT-29/THP-1, 48 h)	THP-1 cell proliferation in co-culture ([1]; 2:1 HT-29/THP-1, 24 h)	THP-1 cell proliferation in co-culture ([1]; 2:1 HT-29/THP-1, 48 h)	IC50 [3]	% CD80 expression in membrane of THP-1 (CD80)	IC50 ([2]; A549, 48 h)	IC50 ([4]; HT-29, 48 h)
181 to 183 °C	> 100 µM	> 100 µM	COc1ccc(CCCc2cccc(NC(=O)Nc3ccc(F)cc3)c2)cc1 [C.3]	87 ± 8	78 ± 5	113 ± 26	91 ± 18	> 100 µM	93 ± 2%	–	–
82 to 85 °C	> 100 µM	> 100 µM	COc1ccc(CCCc2cccc(NC(=O)Nc3ccccc3OC)c2)cc1 [C.14]	99 ± 10	91 ± 6	110 ± 7	86 ± 3	> 100 µM	92 ± 1%	–	–
181 to 183 °C	1.2 ± 0.2 µM	> 100 µM	COc1ccc(CCCc2cccc(NC(=O)Nc3ccc(OC)cc3)c2)cc1 [C.12]	95 ± 18	90 ± 6	94 ± 5	90 ± 2	> 100 µM	89 ± 2%	–	–

SMILES	melting point	IC50 ([2]; A549, MTT, 48 h treatment)	IC50 ([4]; HT-29, MTT, 48 h treatment)	THP-1 cell proliferation in co-culture ([1]; 1:5 HT-29/THP-1, 24 h)	THP-1 cell proliferation in co-culture ([1]; 1:5 HT-29/THP-1, 48 h)	THP-1 cell proliferation in co-culture ([1]; 2:1 HT-29/THP-1, 24 h)	THP-1 cell proliferation in co-culture ([1]; 2:1 HT-29/THP-1, 48 h)	IC50 [3]	% CD80 expression in membrane of THP-1 (CD80)	IC50 ([2]; A549, 48 h)	IC50 ([4]; HT-29, 48 h)
COc1ccc(CCCc2cccc(NC(=O)Oc3ccccc3)c2)cc1 [C.1]	89 to 91 °C	–	–	104 ± 8	97 ± 8	124 ± 6	113 ± 7	> 100 µM	96 ± 1%	> 100 µM	> 100 µM

— article PMC10302582, “Unveiling the Potential of BenzylethyleneAryl–Urea Scaffolds for the Design of New Onco Immunomodulating Agents” (Pharmaceuticals, 2023)
